Test results as given in PubChem BioAssay AID1963827 (Molecular Pharmacology Branch, DTP, NCI, 2024).

Tested on: 994946-033-R-J1-PDC complex spheroid viability
Experiment: Anticancer human tumor 994946-033-R-J1-PDC patient-derived melanoma cell line growth inhibition [POLQ]
Details: for IC50: curve of first compound; for viability, T/C: stronger effect = lower value
Procedure: Multicellular complex tumor spheroid response to Polymerase (POL) inhibitors (novobiocin, ART-558, RP6685) in combination with a variety of drugs and investigational agents in selected tumor cell lines
The POL inhibitors (novobiocin, ART-558, and RP6685) were evaluated both individually and in combination with standard of care and investigational anticancer small molecules within a complex spheroid model of solid tumors. . Complex spheroids include a stromal component modeled by human endothelial cells (HUVEC) and fibroblasts modeled by human mesenchymal stem cells (MSCs). The concentration ranges selected for each drug and investigational agent were based upon clinically achievable concentrations if the clinical Cmax of the agent was known.
Compounds. The drugs and investigational agents: novobiocin (NSC847541), ART-558 (NSC835418), RP-6685 (NSC848927), peposertib (NSC802822), ceralasertib (NSC780249), elimusertib (NSC800525), camonsertib (NSC841442), AZD-1390 (NSC803789), olaparib (NSC753686), talazoparib (NSC767125), rucaparib (NSC756644), sotorasib (NSC818433), MRTX-1133 (NSC836407), SN-38 (NSC673596), topotecan (NSC609699), epotoside (NSC141540), doxorubicin (NSC123127), gemcitabine (NSC613327), 5-fluorouracil (NSC19893), paclitaxel (NSC125973), vemurafenib (NSC761431), MSA-2 (NSC828583), SN-011 (NSC837082), adavosertib (NSC754352), prexasertib (NSC758257), carboplatin (NSC241240) and oxaliplatin (NSC266046), were obtained from the National Cancer Institute (NCI) Developmental Therapeutics Program Chemical Repository (21). The FDA-approved anticancer drug set is available from the Developmental Therapeutics Program at https://dtp.cancer.gov/organization/dscb/obtaining/. […] The stock solutions were prepared in dimethyl sulfoxide (DMSO, Sigma-Aldrich, St. Louis, MO, cat. D2650), except for the platinum compounds which were prepared in saline (Quality Biological, Gaithersburg, MD, cat. 114-055-101), at 800-fold the tested concentration and stored at -70 degrees C prior to their use. All drugs and investigational agents were tested over a range starting from a high concentration at or near the clinical Cmax and decreasing in half-log increments. If the clinical Cmax for an agent had not been determined, the highest concentration tested was 10 microM, except for SN-38, which was tested at a high concentration of 1 microM.
Cell Culture. All cells were maintained in an incubator at 37 degrees C and 5% CO2 with 95% humidity. The PDC lines were cultured according to standard operating procedures established by the NCI PDMR (https://pdmr.cancer.gov). Table 3 of the manuscript, lists the cell lines along with the number of the three cell types plated to form the mct-spheroids and media for tumor cell growth. After thawing, all PDC lines, except 997537-175-T-J1-PDC and 415267-285-R-J2-PDC, were cultured in Matrigel-coated flasks prepared with a working solution of 1X Ham's F-12 nutrient mix, without supplementation (Thermo Fisher Scientific, cat. 11765054), 100 U/mL penicillin-streptomycin (Thermo Fisher Scientific, cat. 15140122), and 2.5% Matrigel (Corning Inc., Corning, NY, cat. 354248) for the first three passages. The two PDC lines 997537-175-T-J1-PDC and 415267-285-R-J2-PDC were cultured on uncoated flasks. The 857933-349-R-J2-PDC line was cultured in 6C/Colon 1B media containing advanced DMEM/F-12 (Thermo Fisher Scientific, cat. 12634028), 10 mM HEPES (Thermo Fisher Scientific, cat. 15630080), 1X GlutaMAX supplement (Thermo Fisher Scientific, cat. 35050061), 0.1 mg/mL primocin (InvivoGen, San Diego, CA, cat. ant-pm-2), 10% defined fetal bovine serum, heat inactivated (HyClone Laboratories Inc., Logan, UT, cat. SH30070.03HI), 50% L-WRN conditioned media (ATCC, cat. CRL-3276), 1.25 mM N-Acetyl-L-cysteine (Sigma-Aldrich, cat. A9165), 10 mM nicotinamide (Sigma-Aldrich, cat. N0636), 1X B-27 supplement (Thermo Fisher Scientific, cat. 17504044), 1X N-2 supplement (Thermo Fisher Scientific, cat. […]
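Also: spheroids exposed to drugs for 7 days.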
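For viability, T/C in this document: 100% = DMSO vehicle treated spheroids.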

CC(=O)O[C@H]1C(=O)[C@@]2(C)[C@H]([C@H](OC(=O)c3ccccc3)[C@]3(O)C[C@H](OC(=O)[C@H](O)[C@@H](NC(=O)c4ccccc4)c4ccccc4)C(C)=C1C3(C)C)[C@]1(OC(C)=O)CO[C@@H]1C[C@@H]2O + Cc1cccc(N(C)C(=O)C2C(O)CCN2c2nc(C)cc(C(F)(F)F)c2C#N)c1
IC50 (second compound 0.0316 µM): < 9.49 nM | IC50 (second compound 0.1 µM): < 9.49 nM | IC50 (second compound 0.316 µM): < 9.49 nM | IC50 (second compound 1 µM): < 9.49 nM | IC50 (second compound 3.16 µM): < 9.49 nM | IC50 (second compound 10 µM): < 9.49 nM | viability, T/C (second compound 0.0316 µM, first compound 0.00949 µM): 19.5% | viability, T/C (second compound 0.0316 µM, first compound 0.03 µM): 19.7% | viability, T/C (second compound 0.0316 µM, first compound 0.0949 µM): 20.6% | viability, T/C (second compound 0.0316 µM, first compound 0.3 µM): 13.5% | viability, T/C (second compound 0.0316 µM, first compound 0.949 µM): 9.96% | viability, T/C (second compound 0.0316 µM, first compound 3 µM): 8.94% | viability, T/C (second compound 0.1 µM, first compound 0.00949 µM): 22.4% | viability, T/C (second compound 0.1 µM, first compound 0.03 µM): 20.6% | viability, T/C (second compound 0.1 µM, first compound 0.0949 µM): 16.8% | viability, T/C (second compound 0.1 µM, first compound 0.3 µM): 16.8% | viability, T/C (second compound 0.1 µM, first compound 0.949 µM): 10.6% | viability, T/C (second compound 0.1 µM, first compound 3 µM): 12.3% | viability, T/C (second compound 0.316 µM, first compound 0.00949 µM): 16.1% | viability, T/C (second compound 0.316 µM, first compound 0.03 µM): 31.9% | viability, T/C (second compound 0.316 µM, first compound 0.0949 µM): 16.3% | viability, T/C (second compound 0.316 µM, first compound 0.3 µM): 15.3% | viability, T/C (second compound 0.316 µM, first compound 0.949 µM): 14.7% | viability, T/C (second compound 0.316 µM, first compound 3 µM): 14.6% | viability, T/C (second compound 1 µM, first compound 0.00949 µM): 23.4% | viability, T/C (second compound 1 µM, first compound 0.03 µM): 21.8% | viability, T/C (second compound 1 µM, first compound 0.0949 µM): 18.9% | viability, T/C (second compound 1 µM, first compound 0.3 µM): 19.6% | viability, T/C (second compound 1 µM, first compound 0.949 µM): 12.4% | viability, T/C (second compound 1 µM, first compound 3 µM): 12.7% | viability, T/C (second compound 3.16 µM, first compound 0.00949 µM): 23% | viability, T/C (second compound 3.16 µM, first compound 0.03 µM): 24.2% | viability, T/C (second compound 3.16 µM, first compound 0.0949 µM): 20.3% | viability, T/C (second compound 3.16 µM, first compound 0.3 µM): 17.3% | viability, T/C (second compound 3.16 µM, first compound 0.949 µM): 14.5% | viability, T/C (second compound 3.16 µM, first compound 3 µM): 12.9% | viability, T/C (second compound 10 µM, first compound 0.00949 µM): 21.6% | viability, T/C (second compound 10 µM, first compound 0.03 µM): 26.2% | viability, T/C (second compound 10 µM, first compound 0.0949 µM): 23.9% | viability, T/C (second compound 10 µM, first compound 0.3 µM): 18.5% | viability, T/C (second compound 10 µM, first compound 0.949 µM): 15% | viability, T/C (second compound 10 µM, first compound 3 µM): 15.7%

COc1cc(C2c3cc4c(cc3C(OC3OC5COC(C)OC5C(O)C3O)C3COC(=O)C23)OCO4)cc(OC)c1O (centres undefined) + Cc1cccc(N(C)C(=O)C2C(O)CCN2c2nc(C)cc(C(F)(F)F)c2C#N)c1
IC50 (second compound 0.0316 µM): 183 nM | IC50 (second compound 0.1 µM): 164 nM | IC50 (second compound 0.316 µM): 250 nM | IC50 (second compound 1 µM): 207 nM | IC50 (second compound 3.16 µM): 388 nM | IC50 (second compound 10 µM): 1260 nM | viability, T/C (second compound 0.0316 µM, first compound 0.0316 µM): 76.3% | viability, T/C (second compound 0.0316 µM, first compound 0.1 µM): 55.2% | viability, T/C (second compound 0.0316 µM, first compound 0.316 µM): 42.6% | viability, T/C (second compound 0.0316 µM, first compound 1 µM): 32.4% | viability, T/C (second compound 0.0316 µM, first compound 3.16 µM): 14.2% | viability, T/C (second compound 0.0316 µM, first compound 10 µM): 6.56% | viability, T/C (second compound 0.1 µM, first compound 0.0316 µM): 77.8% | viability, T/C (second compound 0.1 µM, first compound 0.1 µM): 47.9% | viability, T/C (second compound 0.1 µM, first compound 0.316 µM): 44.9% | viability, T/C (second compound 0.1 µM, first compound 1 µM): 32.4% | viability, T/C (second compound 0.1 µM, first compound 3.16 µM): 10.9% | viability, T/C (second compound 0.1 µM, first compound 10 µM): 5.27% | viability, T/C (second compound 0.316 µM, first compound 0.0316 µM): 79.7% | viability, T/C (second compound 0.316 µM, first compound 0.1 µM): 63.1% | viability, T/C (second compound 0.316 µM, first compound 0.316 µM): 34.4% | viability, T/C (second compound 0.316 µM, first compound 1 µM): 49.7% | viability, T/C (second compound 0.316 µM, first compound 3.16 µM): 12.9% | viability, T/C (second compound 0.316 µM, first compound 10 µM): 8.08% | viability, T/C (second compound 1 µM, first compound 0.0316 µM): 89.2% | viability, T/C (second compound 1 µM, first compound 0.1 µM): 49.1% | viability, T/C (second compound 1 µM, first compound 0.316 µM): 47.2% | viability, T/C (second compound 1 µM, first compound 1 µM): 35.3% | viability, T/C (second compound 1 µM, first compound 3.16 µM): 13.5% | viability, T/C (second compound 1 µM, first compound 10 µM): 5.19% | viability, T/C (second compound 3.16 µM, first compound 0.0316 µM): 72.5% | viability, T/C (second compound 3.16 µM, first compound 0.1 µM): 64.5% | viability, T/C (second compound 3.16 µM, first compound 0.316 µM): 56.8% | viability, T/C (second compound 3.16 µM, first compound 1 µM): 27.4% | viability, T/C (second compound 3.16 µM, first compound 3.16 µM): 14.1% | viability, T/C (second compound 3.16 µM, first compound 10 µM): 5.31% | viability, T/C (second compound 10 µM, first compound 0.0316 µM): 67.5% | viability, T/C (second compound 10 µM, first compound 0.1 µM): 45.3% | viability, T/C (second compound 10 µM, first compound 0.316 µM): 63.3% | viability, T/C (second compound 10 µM, first compound 1 µM): 58.7% | viability, T/C (second compound 10 µM, first compound 3.16 µM): 14.8% | viability, T/C (second compound 10 µM, first compound 10 µM): 6.96%
